Reference: ChEMBL document CHEMBL1201862, “PubChem BioAssay data set” (2004)
Several values for one entry are separate records, joined by “and”; a condition that tells them apart may be missing. Equal values may be shown once.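 These data come from cells grown in 96-well plates and exposed to compound for 48 hours at five concentrations. Here, GI50 denotes the concentration required for 50% inhibition of growth.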 Activity calls are given as the source filed them. No stated cut-off is given here; in the data, active = GI50 up to about 1.1 µM and inactive = higher.

How the values were obtained:
Experiment in all cases: DTP human tumour cell line panel, 48 h
A549 = tested on: A549
EKVX = tested on: EKVX
Malme-3M = tested on: Malme-3M
K562 = tested on: K562
HCT-116 = tested on: HCT-116
HOP-92 = tested on: HOP-92
HT-29 = tested on: HT-29
ACHN = tested on: ACHN
UACC-62 = tested on: UACC-62
UO-31 = tested on: UO-31
OVCAR-3 = tested on: OVCAR-3
SK-MEL-28 = tested on: SK-MEL-28
786-0 = tested on: 786-0
MOLT-4 = tested on: MOLT-4
KM-20L2 = tested on: KM-20L2
SK-MEL-2 = tested on: SK-MEL-2
DU-145 = tested on: DU-145
MDA-N = tested on: MDA-N
Hs-578T = tested on: Hs-578T
NCI/ADR-RES = tested on: NCI/ADR-RES

Row | SMILES | GI50 (A549) | GI50 (EKVX) | GI50 (Malme-3M) | GI50 (K562) | GI50 (HCT-116) | GI50 (HOP-92) | GI50 (HT-29) | GI50 (ACHN) | GI50 (UACC-62) | GI50 (UO-31) | GI50 (OVCAR-3) | GI50 (SK-MEL-28) | GI50 (786-0) | GI50 (MOLT-4) | GI50 (KM-20L2) | GI50 (SK-MEL-2) | GI50 (DU-145) | GI50 (MDA-N) | GI50 (Hs-578T) | GI50 (NCI/ADR-RES)
1 | COC(=O)C1=C(c2ccc3c(c2)OCO3)OC(c2cc(OC)c(OC)c(OC)c2)C1 (centres undefined) | 5.77 µM (inactive) | 2.82 µM (inactive) | 4.74 µM (inactive) | 0.883 µM (active) | 2.88 µM (inactive) | 5.75 µM (inactive) | 1.29 µM (inactive) | 6.98 µM (inactive) | 1.81 µM (inactive) | 8.26 µM (inactive) | 1.43 µM (inactive) | > 100 µM (inactive) | 3.61 µM (inactive) | 6.44 µM (inactive) | 1.57 µM (inactive) |  |  |  |  | 
2 | CCOC(=O)c1ccc(/C(C)=N/NC(N)=S)cc1 | > 100 µM (inactive) | 2.74 µM (inactive) |  | > 100 µM (inactive) | > 100 µM (inactive) | > 100 µM (inactive) |  | > 100 µM (inactive) | > 100 µM (inactive) |  | > 100 µM (inactive) | > 100 µM (inactive) | > 100 µM (inactive) | > 100 µM (inactive) | > 100 µM (inactive) |  |  |  |  | 
3 | CCOC(=O)[C@@]12C(C)=CC(=O)O[C@]1(C)C1C(=O)NC(=O)C12 (some centres undefined) | > 100 µM (inactive) | > 100 µM (inactive) | > 100 µM (inactive) | > 100 µM (inactive) | > 100 µM (inactive) | 22.1 µM (inactive) | > 100 µM (inactive) | > 100 µM (inactive) | 17.4 µM (inactive) | > 100 µM (inactive) | 34.4 µM (inactive) | > 100 µM (inactive) | > 100 µM (inactive) | > 100 µM (inactive) | > 100 µM (inactive) | > 100 µM (inactive) |  |  |  | 
4 | Cc1nn(C)c(=O)c2nn(-c3ccccc3)c(C)c12 | > 100 µM (inactive) | > 100 µM (inactive) | > 100 µM (inactive) | > 100 µM (inactive) | > 100 µM (inactive) |  | > 100 µM (inactive) | > 100 µM (inactive) | > 100 µM (inactive) | > 100 µM (inactive) | > 100 µM (inactive) | > 100 µM (inactive) | > 100 µM (inactive) | > 100 µM (inactive) | > 100 µM (inactive) | > 100 µM (inactive) |  |  |  | 
5 | O=C(CC(=O)Nc1ccccc1O)Nc1ccccc1O | 29.9 µM (inactive) | > 100 µM (inactive) | 22.8 µM (inactive) | 6.79 µM (inactive) | 13.2 µM (inactive) | > 100 µM (inactive) | 27.9 µM (inactive) | 9.86 µM (inactive) | 3.24 µM (inactive) | 12.1 µM (inactive) | 14.9 µM (inactive) | 13.8 µM (inactive) | 19.6 µM (inactive) | 5.62 µM (inactive) | 22.9 µM (inactive) |  |  |  |  | 
6 | COC(=O)C(C(=O)C(=O)Nc1ccc([N+](=O)[O-])cc1)c1nc2cc(C)c(C)cc2nc1O (centres undefined) | > 100 µM (inactive) | > 100 µM (inactive) | > 100 µM (inactive) | > 100 µM (inactive) | > 100 µM (inactive) | > 100 µM (inactive) | > 100 µM (inactive) | > 100 µM (inactive) | > 100 µM (inactive) | > 100 µM (inactive) | > 100 µM (inactive) | > 100 µM (inactive) | > 100 µM (inactive) | > 100 µM (inactive) | > 100 µM (inactive) |  |  |  |  | 
7 | O=[N+]([O-])c1cccc(C(O)/C(=N/Nc2ccccc2)C2Nc3ccc([N+](=O)[O-])cc3N=C2O)c1 (centres undefined) | 41.2 µM (inactive) | > 100 µM (inactive) | 95.9 µM (inactive) | 30.5 µM (inactive) | > 100 µM (inactive) | > 100 µM (inactive) | 50.9 µM (inactive) | 24.5 µM (inactive) | 17.4 µM (inactive) | 27.5 µM (inactive) | 66.7 µM (inactive) | > 100 µM (inactive) | > 100 µM (inactive) | 27.2 µM (inactive) | 23.1 µM (inactive) | > 100 µM (inactive) |  |  |  | 
8 | CCCCOCN/C(N)=N/C#N | > 100 µM (inactive) | > 100 µM (inactive) | > 100 µM (inactive) | 73.6 µM (inactive) | > 100 µM (inactive) | > 100 µM (inactive) | > 100 µM (inactive) | > 100 µM (inactive) | > 100 µM (inactive) | > 100 µM (inactive) | > 100 µM (inactive) | > 100 µM (inactive) | 33.9 µM (inactive) | > 100 µM (inactive) | > 100 µM (inactive) | > 100 µM (inactive) |  |  |  | 
9 | NC(=O)C#CC#CC#CCO | 4.39 µM (inactive) | 1.68 µM (inactive) | 1.96 µM (inactive) | 2.04 µM (inactive) | 1.28 µM (inactive) | 2.28 µM (inactive) | 2.39 µM (inactive) | 1.34 µM (inactive) | 1.92 µM (inactive) | 1.95 µM (inactive) | 1.9 µM (inactive) | 2.14 µM (inactive) | 1.59 µM (inactive) | 0.998 µM (active) | 3.89 µM (inactive) | 2.2 µM (inactive) |  |  |  | 
10 | COc1ccc(-c2cn3ccsc3n2)cc1 | > 100 µM (inactive) | > 100 µM (inactive) | > 100 µM (inactive) | 55.2 µM (inactive) | 45.4 µM (inactive) | > 100 µM (inactive) | 82.8 µM (inactive) | > 100 µM (inactive) | > 100 µM (inactive) | > 100 µM (inactive) | > 100 µM (inactive) | > 100 µM (inactive) | 35.6 µM (inactive) | 97.7 µM (inactive) | 57.8 µM (inactive) | > 100 µM (inactive) |  |  |  | 
11 | O=CN/C=C/c1ccc(O)c(O)c1 | > 100 µM (inactive) | > 100 µM (inactive) | > 100 µM (inactive) | > 100 µM (inactive) | > 100 µM (inactive) | > 100 µM (inactive) | > 100 µM (inactive) | > 100 µM (inactive) | > 100 µM (inactive) | > 100 µM (inactive) | > 100 µM (inactive) | > 100 µM (inactive) | > 100 µM (inactive) | > 100 µM (inactive) | > 100 µM (inactive) | > 100 µM (inactive) |  |  |  | 
12 | COC(=O)CCC(=O)C(C#N)c1ccc(Cl)cc1Cl (centres undefined) | > 100 µM (inactive) | > 100 µM (inactive) | > 100 µM (inactive) | > 100 µM (inactive) | > 100 µM (inactive) | > 100 µM (inactive) | 4.97 µM (inactive) | > 100 µM (inactive) | > 100 µM (inactive) | > 100 µM (inactive) | > 100 µM (inactive) | > 100 µM (inactive) | > 100 µM (inactive) | > 100 µM (inactive) | > 100 µM (inactive) | > 100 µM (inactive) |  |  |  | 
13 | CC[n+]1c(/C=C/c2ccc(N(CCCl)CCCl)cc2)ccc2cc(NC(=O)/C=C/c3ccccc3)ccc21 | 0.279 µM (active) | 0.927 µM (active) | 0.291 µM (active) | 0.134 µM (active) | 0.317 µM (active) | 0.251 µM (active) | 0.344 µM (active) | 0.807 µM (active) | 0.646 µM (active) | 16.6 µM (inactive) | 1.75 µM (inactive) | 0.762 µM (active) | 0.336 µM (active) | 0.286 µM (active) | 0.483 µM (active) | 0.431 µM (active) | 0.288 µM (active) | 0.6 µM (active) | 0.0912 µM (active) | 30.9 µM (inactive)
14 | COc1cc(-c2oc3c(OC)c(OC)cc(O)c3c(=O)c2OC)ccc1O [TERNATIN] | 14.9 µM (inactive) | 11.4 µM (inactive) | 13.1 µM (inactive) and 9.59 µM (inactive) | 27.5 µM (inactive) | 5.04 µM (inactive) and 8.69 µM (inactive) |  | > 100 µM (inactive) |  | 8.39 µM (inactive) and 4.7 µM (inactive) |  | 11.7 µM (inactive) |  | 6.32 µM (inactive) and 12 µM (inactive) | 12.7 µM (inactive) | > 100 µM (inactive) |  | 7.43 µM (inactive) | 15.2 µM (inactive) | 3.93 µM (inactive) | 38.8 µM (inactive)
15 | CN(C)/C=N\c1nc(=O)n(C2CCC(CO)O2)cc1F (centres undefined) | > 100 µM (inactive) | > 100 µM (inactive) | > 100 µM (inactive) | > 100 µM (inactive) |  | > 100 µM (inactive) | > 100 µM (inactive) | > 100 µM (inactive) |  | > 100 µM (inactive) | > 100 µM (inactive) | > 100 µM (inactive) | > 100 µM (inactive) | > 100 µM (inactive) | > 100 µM (inactive) | > 100 µM (inactive) |  |  |  | 
16 | COc1cc2c(c(OC)c1OC)-c1ccc(OC)c(=O)cc1[C@@H](NC(=O)c1ccccc1)CC2 | 0.018 µM (active) | 5.15 µM (inactive) | 0.016 µM (active) | < 0.0114 µM (active) | 0.0126 µM (active) | 0.0173 µM (active) | 0.0114 µM (active) | 0.0305 µM (active) | < 0.0113 µM (active) | 0.449 µM (active) | < 0.0103 µM (active) | 1.86 µM (inactive) | 0.0184 µM (active) | 0.0562 µM (active) | < 0.01 µM (active) | 0.012 µM (active) | 0.0199 µM (active) | < 0.01 µM (active) | < 0.0126 µM (active) | 0.168 µM (active)
17 | CCOC(=O)NC(=O)c1cn(CCCOC(=O)CCCCCCCCCCC(=O)OCCCn2cc(C(=O)NC(=O)OCC)c(=O)[nH]c2=O)c(=O)[nH]c1=O | > 100 µM (inactive) | > 100 µM (inactive) | > 100 µM (inactive) | > 100 µM (inactive) | > 100 µM (inactive) | > 100 µM (inactive) | > 100 µM (inactive) | > 100 µM (inactive) | > 100 µM (inactive) | > 100 µM (inactive) | > 100 µM (inactive) | > 100 µM (inactive) | > 100 µM (inactive) | > 100 µM (inactive) | > 100 µM (inactive) | > 100 µM (inactive) |  |  |  | 
